These results are taken from paper PMC5012566, “A Cell-Based Assay for Measuring Endogenous BcrAbl Kinase Activity and Inhibitor Resistance” (PLoS ONE, 2016).

The subject of assay [1] is K562 cells. The note with it: parental K562 cells; 10 nM dasatinib; Fig 6C.
Assay [2] concerns K562-NR cells. The note with it: cross-resistance, relative to parental.
Assay [3] concerns K562-NR cells. As to the kind of experiment: cells. The note with it: Homo sapiens, read-out: Growth Inhibition IC50 (95% CI).
For assay [4], the system named is chronic myeloid leukemia (CML). The note with it: cited from earlier work.
The subject of assay [5] is K562-DR cells. Briefly: cells. The note with it: Homo sapiens, read-out: Growth Inhibition IC50 (95% CI).

Take `Cc1nc(Nc2ncc(C(=O)Nc3c(C)cccc3Cl)s2)cc(N2CCN(CCO)CC2)n1` [dasatinib]: the “cell growth at the level consistent with resistant culture conditions” value in assay [1] is recorded as “lack of growth”. Also, the “cell growth inhibition (in words)” value in assay [2] is on record as “somewhat less potent”. Also, the IC50 in assay [3] stood at 3.6 nM.

On to `Cc1ccc(NC(=O)c2ccc(CN3CCN(C)CC3)cc2)cc1Nc1nccc(-c2cccnc2)n1` [imatinib], for which the “cell growth inhibition (in words)” value in assay [2] was “unable to inhibit growth at any of the concentrations tested”. Besides, in assay [4], the response rate is 80%.

As for `Cc1cn(-c2cc(NC(=O)c3ccc(C)c(Nc4nccc(-c5cccnc5)n4)c3)cc(C(F)(F)F)c2)cn1` [nilotinib], the IC50 in assay [3] was 718 nM; in assay [5] it was 25 nM.
